Measured values as given in patent US20190177774A1, “MOLECULAR REFERENCE CONTROLS” (STRECK, INC., priority 2016, published 2019).

Legend:
Assay in all cases: Time to stabilization (viability and sterility after addition of stabilizer)
[1] = tested on: E. coli; format: cell-based, Escherichia coli
Experimental: (§1) In one example, bacterial cells containing target gene sequences were stabilized with various cross-linkers and evaluated by microbiological methods. Viability and sterility were evaluated at various time points following addition of stabilizer. Time to stabilization was evaluated for particular bacteria/stabilizer combinations as shown below in Table 1.

[2] = tested on: N. sicca; format: cell-based, Neisseria sicca
Experimental: as §1

[3] = tested on: C. psuedo; format: cell-based, Corynebacterium pseudodiphtheriticum
Experimental: as §1

Molecule	Time to Stabilization [1] [days]	Time to Stabilization [2] [h]	Time to Stabilization [3] [h]
O=C(CCCCCCC(=O)ON1C(=O)CC(S(=O)(=O)O)C1=O)ON1C(=O)CC(S(=O)(=O)O)C1=O (centres unmarked) [Bis[sulfosuccinimidyl] Suberate]	>5	–	–
O=C(CCCCCCC(=O)ON1C(=O)CCC1=O)ON1C(=O)CCC1=O [Disuccinimidyl Suberate]	5	–	–
C=O [Formaldehyde]	1	24	24
O=CCCCC=O [Glutaraldehyde]	0.083	2	24
o-Phthalaldehyde	0.0104	2	24
